In paper PMC4269767, “Ligand Binding Modulates the Structural Dynamics and Compactness of the Major Birch Pollen Allergen” (Biophysical Journal, 2014):
Structures can show the parent of a compound that is named as a salt.

Tests used:
[1] = molecular target: T1, Bet v 1.0101 (Betula pendula, UniProt P15494); assay: crystal structure (soaked); 1H-15N HSQC NMR titration; relaxation dispersion; format: binding
T1 construct: gene BETVIA
T1 sequence (P15494 2-160): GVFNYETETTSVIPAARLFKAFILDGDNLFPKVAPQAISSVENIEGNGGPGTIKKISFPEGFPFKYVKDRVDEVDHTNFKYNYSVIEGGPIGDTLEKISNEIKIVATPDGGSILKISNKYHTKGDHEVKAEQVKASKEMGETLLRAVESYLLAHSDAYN

[2] = molecular target: T1, Bet v 1.0101; assay: 1H-15N HSQC NMR titration; PFG diffusion NMR; relaxation dispersion; format: binding

| SMILES | Kd [1] [µM] | Kd [2] [µM] |
| --- | --- | --- |
| CCCCCCCCCCCCOS(=O)(=O)O [SDS, sodium dodecyl sulfate] | 7 | – |
| CCCCC(CC)CCC(CC(C)C)OS(=O)(=O)O (centres unmarked) [STS, sodium tetradecyl sulfate] | – | 1 |
